Data taken from US20160031868A1, “BENZIMIDAZOLONE DERIVATIVES AS BROMODOMAIN INHIBITORS” (GILEAD SCIENCES, INC., priority 2013, published 2016).
pIC50: −log10 of the molar value.

Legend:
[1] = MT-4 proliferation assay in 384-well format (Cell Titer Glo); format: cell-based, human; details: human, MT-4 cells, Table 1, 50% decrease in luminescence signal, read-out: CC50 MT4 384
Protocol: (§1) Compounds were tested in a standardized high-throughput 384-well assay format. Each compound was serially diluted 3-fold in 100% DMSO in polypropylene 384-well plates using a Biomek FX Workstation, and 0.4 μL compound added to an assay plate containing 40 μL RPMI media. Compounds were arranged in a horizontal pattern, with 10 concentrations per compound, and 8 compounds added per plate. Due to low DMSO tolerability, the final DMSO concentration never exceeded 0.5% (v/v). Each assay plate contained 10 μM Puromycin and 0.5% DMSO in RPMI-1640 as positive and negative controls respectively. MT-4 cells (HTLV-1 transformed, human T lymphoblastoid cells, NIH Aids Reagent program) were added in volumes of 35 μL per well and 2,000 cells per well using a Biotek uFlow Workstation (Biotek, Winooski, Vt.), and the plates subsequently incubated for 5 days at 37° C. in an incubator set at 5% CO2 and 90% humidity.
(§2) After 5 days, 22 μL Cell Titer Glo (Promega) was added to the assay plates with a Biotek uFlow Workstation. Plates were subsequently placed on a Perkin Elmer Envision Plate Reader for 5 minutes before the luminescence signal was read. CC50 values were calculated from the compound concentration that caused a 50% decrease in luminescence signal, a measure of toxicity, and calculated by non-linear regression using Pipeline Pilot software (Accelrys, San Diego, Calif.).

BRD4-2 = molecular target: T1, BRD4-2 (Homo sapiens, UniProt O60885); test: Biochemical HTRF (TR-FRET) assay: BRD4-2 binding to acetylated histone H4 peptide; details: 200 nM H4 peptide, 120 nM BRD4-2, 60 min at 25 °C; geometric mean; read-out: IC50 HTBS BRD4-2 HTRF
T1 construct: made in house; host or cells: Escherichia coli
Protocol: (§3) Binding of the two tandem bromodomains, BRD4 I and BRD4—2, to an acetylated histone H4 peptide were measured using a homogeneous time resolved fluorescence resonance energy transfer (TR-FRET) assay. The synthetic peptide containing amino acids 1-18 of histone H4 was acetylated at lysine 5, 8, 12, 16 and conjugated to biotin ([…]-GSGSK-biotin) was purchased from Millipore. BRD4_I and BRD4—2 were expressed and purified from Escherichia coli as N-terminal His6-tagged proteins. An XL665 labeled anti-His antibody (Cisbio) was used to specifically bind BRD4 and a cryptate labeled streptavidin protein was used because it specifically recognized the biotinylated H4 peptide. […] Assays were performed in 50 mM Hepes (pH 7.5), 150 mM NaCl, 0.1 mg/ml BSA, 0.01% (v/v) Brij, 0.5% (v/v) DMSO and 200 nM H4 peptide at the following concentrations for each BRD4 isoform: 60 nM BRD4—1 and 120 nM BRD4—2. After an assay reaction time of 60 minutes at 25° C., binding was measured with 2 nM cryptate labeled streptavidin and 10 nM anti-His-XL665 antibody. TR-FRET signal was detected on an Envision plate reader (Ex: 320 nm; Em: 615/665 nm; 100 μs delay and 200 μs read window). Data were normalized based on a positive (2 μM I-BET) and negative (DMSO) controls and IC50 values were calculated from the fit of the dose-response curves to a four-parameter equation. All IC50 values represent geometric mean values of a minimum of four determinations. These assays generally produced results within 3-fold of the reported mean.

BRD4-1 [2] = molecular target: T2, BRD4-1 (Homo sapiens, UniProt O60885); test: Biochemical HTRF (TR-FRET) assay: BRD4-1 binding to acetylated histone H4 peptide; details: 200 nM H4 peptide, 60 nM BRD4-1, 60 min at 25 °C; geometric mean; read-out: IC50 HTBS BRD4-1 HTRF
T2 construct: made in house; host or cells: Escherichia coli
Protocol: as §3

BRD4-1 [3] = molecular target: T2, BRD4-1; test: Biochemical ALPHA assay: binding of BRD4_1 to acetylated histone H4 peptide; details: 200 nM H4 peptide, 15 nM BRD4_1, 60 min at 25 °C; geometric mean of min. four determinations
Protocol: Binding of the bromodomain BRD4_I to an acetylated histone H4 peptide was measured using a bead based Amplified Luminescent Proximity Homogeneous Assay (ALPHA). The synthetic peptide containing amino acids 1-18 of histone H4 was acetylated at lysine 5, 8, 12, 16 and conjugated to biotin ([…]-GSGSK-biotin) was purchased from Millipore. BRD4_I was expressed and purified from Escherichia coli as an N-terminal Hiss-tagged protein. Nickel-Chelate ALPHA acceptor beads (Perkin Elmer) were used to specifically bind BRD4—1 and ALPHA streptavidin donor beads (Perkin Elmer) were used because they specifically recognized the biotinylated H4 peptide. […] Assays were performed in 50 mM Hepes (pH 7.5), 150 mM NaCl, 0.1 mg/ml BSA, 0.01% (v/v) Brij, 0.5% (v/v) DMSO, 200 nM H4 peptide and 15 nM of BRD4—1 protein. After an assay reaction time of 60 minutes at 25° C., binding was measured with 20 µg/ml streptavidin donor beads and 20 μg/ml nickel-chelate acceptor beads. ALPHA signal was detected on an Envision plate reader ([…]; Em: 570 nm; Ex time: 180 ms). Data were normalized based on a positive (2 μM I-BET) and negative (DMSO) controls and IC50 values were calculated from the fit of the dose-response curves to a four-parameter equation. All IC50 values represent geometric mean values of a minimum of four determinations. These assays generally produced results within 3-fold of the reported mean.

MT-4 cells = test: MT-4 proliferation assay in 384-well format (Cell Titer Glo); format: cell-based, human; details: Table 1, 5 days, 50% decrease in luminescence signal, read-out: CC50 MT4 384
Protocol: as §1, §2

Row | SMILES | CC50 at 5 days [1] [nM] | pIC50 (BRD4-2) | pIC50 (BRD4-1 [2]) | pIC50 (BRD4-1 [3]) | CC50 (MT-4 cells) [nM]
1 | Cc1ccc2ncccc2c1-c1cc(-c2c(C)noc2C)cc2[nH]c(=O)[nH]c12 (racemic) [Example 2, 6-(3,5-dimethylisoxazol-4-yl)-4-(6-methylquinolin-5-yl)-1H-benzo[d]imidazol-2(3H)-one] | 19 | 6.92 | 6.87 | 7.51 | 
2 | Cc1ccc2ncccc2c1-c1cc(-c2c(C)noc2C)cc2[nH]c(=O)[nH]c12 (single isomer, unassigned) [Example 13] |  |  |  | 7.34 | 51.6
3 | Cc1ccc2ncccc2c1-c1cc(-c2c(C)noc2C)cc2[nH]c(=O)[nH]c12 (single isomer, unassigned) [Example 14] |  |  |  | 7.85 | 9.54
4 | Cc1noc(C)c1-c1cc(S(=O)(=O)NC2CCCC2)c2[nH]c(=O)[nH]c2c1 [Example 1, N-cyclopentyl-6-(3,5-dimethylisoxazol-4-yl)-2-oxo-2,3-dihydro-1H-benzo[d]imidazole-4-sulfonamide] | 1120 | 5.97 | 5.85 |  | 
5 | Cc1noc(C)c1-c1cc(-c2c(C)noc2C)c2[nH]c(=O)[nH]c2c1 [Example 3, 4,6-bis(3,5-dimethylisoxazol-4-yl)-1H-benzo[d]imidazol-2(3H)-one] | 196 |  | 6.53 | 6.92 | 
6 | Cc1noc(C)c1-c1cc(-c2cccnc2-c2ccccc2)c2[nH]c(=O)[nH]c2c1 [Example 4, 6-(3,5-dimethylisoxazol-4-yl)-4-(2-phenylpyridin-3-yl)-1H-benzo[d]imidazol-2(3H)-one] | 103 | 6.85 | 6.92 | 7.43 | 
7 | Cc1cnn(C)c1-c1cc(-c2c(C)noc2C)cc2[nH]c(=O)[nH]c12 [Example 5] | 233 | 6.84 | 6.46 | 6.63 | 
8 | Cc1noc(C)c1-c1cc(-c2cccc3c2CCC(=O)N3C)c2[nH]c(=O)[nH]c2c1 [Example 6, 5-(6-(3,5-dimethylisoxazol-4-yl)-2-oxo-2,3-dihydro-1H-benzo[d]imidazol-4-yl)-1-methyl-3,4-dihydroquinolin-2(1H)-one] | 53.9 | 6.97 | 6.88 | 7.33 | 
9 | Cc1ccc2ncccc2c1-c1cc(-c2c(C)noc2C)cc2[nH]c(=O)n(C)c12 [Example 7, 5-(3,5-dimethylisoxazol-4-yl)-1-methyl-7-(6-methylquinolin-5-yl)-1H-benzo[d]imidazol-2(3H)-one] | 17.5 | 7.00 | 6.92 | 7.43 | 
10 | Cc1cnn(C)c1-c1cc(-c2c(C)noc2C)cc2[nH]c(=O)n(C)c12 [Example 8, 7-(1,4-dimethyl-1H-pyrazol-5-yl)-5-(3,5-dimethylisoxazol-4-yl)-1-methyl-1H-benzo[d]imidazol-2(3H)-one] | 117 | 6.77 | 6.29 | 6.62 | 
11 | Cc1noc(C)c1-c1cc(-c2c(C)noc2C)c2c(c1)[nH]c(=O)n2C [Example 9] | 204 | 6.64 | 6.30 | 6.57 | 
12 | Cc1noc(C)c1-c1cc(-c2c(C)noc2C)c2oc(=O)[nH]c2c1 [Example 10, 5,7-bis(3,5-dimethylisoxazol-4-yl)benzo[d]oxazol-2(3H)-one] | 1030 | 6.40 | 6.50 | 6.71 | 
13 | Cc1ccc2ncccc2c1-c1cc(-c2c(C)noc2C)cc2[nH]c(=O)oc12 [Example 11, 5-(3,5-dimethylisoxazol-4-yl)-7-(6-methylquinolin-5-yl)benzo[d]oxazol-2(3H)-one] | 421 | 6.76 | 6.36 | 6.65 | 
14 | Cc1noc(C)c1-c1cc(-c2cccnc2-c2ccccc2)c2oc(=O)[nH]c2c1 [Example 12, 5-(3,5-dimethylisoxazol-4-yl)-7-(2-phenylpyridin-3-yl)benzo[d]oxazol-2(3H)-one] | 761 | 6.50 | 6.50 | 6.63 | 
